From patent US20230019491A1, “PYRIMIDINE TBK/IKKe INHIBITOR COMPOUNDS AND USES THEREOF” (Merck Patent GmbH, priority 2017, published 2023)

How the values were obtained:
TBK1 = target: T1, TBK1 (Homo sapiens, UniProt Q9UHD2); assay: TBK biochemical assay; settings: 10 point 1:4 dose response, 30 uM top concentration, 90 min at 25° C., LabChip EZ Reader II; read-out: TBK1_IC50
T1 sequence (Q9UHD2 1-729): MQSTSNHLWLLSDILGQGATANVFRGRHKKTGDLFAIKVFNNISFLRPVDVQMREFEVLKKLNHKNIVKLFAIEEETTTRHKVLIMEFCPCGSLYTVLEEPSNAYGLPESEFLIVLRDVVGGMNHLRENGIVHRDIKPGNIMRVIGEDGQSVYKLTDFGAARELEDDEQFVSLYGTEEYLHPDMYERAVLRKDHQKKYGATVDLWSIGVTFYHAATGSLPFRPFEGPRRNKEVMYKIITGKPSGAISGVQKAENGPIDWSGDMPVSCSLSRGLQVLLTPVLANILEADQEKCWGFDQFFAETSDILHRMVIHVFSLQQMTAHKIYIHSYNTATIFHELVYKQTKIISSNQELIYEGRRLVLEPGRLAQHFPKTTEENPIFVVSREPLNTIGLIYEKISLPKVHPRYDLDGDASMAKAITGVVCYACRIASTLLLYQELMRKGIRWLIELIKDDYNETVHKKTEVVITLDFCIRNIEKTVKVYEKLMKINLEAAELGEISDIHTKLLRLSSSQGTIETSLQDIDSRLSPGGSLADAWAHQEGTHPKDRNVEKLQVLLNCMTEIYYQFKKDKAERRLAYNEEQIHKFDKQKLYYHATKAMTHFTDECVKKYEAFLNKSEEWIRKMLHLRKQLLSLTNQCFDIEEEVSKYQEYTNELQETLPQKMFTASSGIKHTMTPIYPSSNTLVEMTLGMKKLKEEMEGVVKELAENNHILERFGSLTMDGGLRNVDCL
Procedure: (§1) Test compounds were transferred into Labcyte polypropylene 384 well plates (P055-25) and diluted to 3 mM using DMSO. […] 100 uM of a reference compound (1 uM final high concentration). Backfilling was performed if necessary so that all wells contain 1% DMSO final:
(§2) add 75 nl DMSO/well into columns 1, 2 and 24 using Labcyte Echo. add 75 nl 1.0 mM staurosporine/well into column 23 using Labcyte Echo ([…]) add 4.5 ul enzyme/well using multidrop dispenser add 3 ul substrate/well using multidrop dispenser incubate at 25° C. in Heidolph incubator for 90 min. add 7.5 ul 2× stop buffer using multidrop dispenser read on labchip ez reader II using TBK1.job
(§3) Raw data files were opened in the Caliper LabChip Reviewer program (Version 3.0.265.0 SP2) and peak assignments were adjusted to reflect “substrate first” with the software's post-run analysis options. A spline-fit baseline was applied using the software's analysis algorithm.

IKKε = target: T2, IKKε (Homo sapiens, UniProt Q14164); assay: IKKε biochemical assay; settings: 10 point 1:4 dose response, 30 uM top concentration, 90 min at 25° C., LabChip EZ Reader II; read-out: IKKε_IC50
T2 sequence (Q14164 1-716): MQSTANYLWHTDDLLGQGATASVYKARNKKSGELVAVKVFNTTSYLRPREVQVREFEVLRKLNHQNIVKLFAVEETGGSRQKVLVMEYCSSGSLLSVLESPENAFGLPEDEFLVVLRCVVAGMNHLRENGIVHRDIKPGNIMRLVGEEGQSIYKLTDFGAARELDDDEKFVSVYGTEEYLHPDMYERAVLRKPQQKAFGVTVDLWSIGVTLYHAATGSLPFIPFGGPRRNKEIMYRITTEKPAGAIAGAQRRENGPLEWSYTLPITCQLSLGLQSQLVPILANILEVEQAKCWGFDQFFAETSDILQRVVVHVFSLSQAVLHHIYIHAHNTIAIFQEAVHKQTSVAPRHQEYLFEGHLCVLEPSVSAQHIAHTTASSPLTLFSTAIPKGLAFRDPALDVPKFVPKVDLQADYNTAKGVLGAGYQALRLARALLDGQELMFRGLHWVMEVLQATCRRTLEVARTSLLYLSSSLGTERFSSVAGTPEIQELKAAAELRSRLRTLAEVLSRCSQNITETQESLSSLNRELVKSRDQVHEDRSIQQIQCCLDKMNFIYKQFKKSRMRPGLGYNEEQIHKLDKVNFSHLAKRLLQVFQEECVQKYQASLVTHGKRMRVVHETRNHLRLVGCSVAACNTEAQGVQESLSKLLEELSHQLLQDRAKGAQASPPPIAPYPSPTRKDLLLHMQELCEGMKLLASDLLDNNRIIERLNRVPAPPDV
Procedure: as §1
as §2, with “C.” for “C. in Heidolph incubator”, “buffer” for “buffer using multidrop dispenser”, “IKKε.” for “TBK1.job”
as §3

IC50 (TBK1) [nM]	IC50 (IKKε) [nM]	SMILES
< 100	< 100	COc1nc(Nc2nccc(-c3ccc(O[C@H]4CCN(C(=O)C(C)O)C[C@H]4F)c(C#N)c3)n2)ccc1N1CCN(C2COC2)CC1 (stereo partly drawn) [Example 190, 2-[[(3R,4S)-3-fluoro-1-(2-hydroxypropanoyl)piperidin-4-yl]oxy]-5-[2-([6-methoxy-5-[4-(oxetan-3-yl)piperazin-1-yl]pyridin-2-yl]amino)pyrimidin-4-yl]benzonitrile]
< 100	< 100	COc1cc(Nc2nccc(-c3ccc(O[C@@H]4CCN(C(=O)[C@@H](C)O)CC4(F)F)c(C#N)c3)n2)ccn1 [Example 231, 2-((R)-3,3-difluoro-1-((R)-2-hydroxypropanoyl)piperidin-4-yloxy)-5-(2-(2-methoxypyridin-4-ylamino)pyrimidin-4-yl)benzonitrile]
< 100	< 100	COc1nc(Nc2nccc(-c3ccc(OC4CCN(C(=O)[C@@H](O)CO)CC4(F)F)c(C#N)c3)n2)ccc1C1CCN(C2COC2)CC1 (stereo partly drawn) [Example 153, 2-[1-((S)-2,3-Dihydroxy-propionyl)-3,3-difluoro-piperidin-4-yloxy]-5-[2-(2-methoxy-1′-oxetan-3-yl-1′,2′,3′,4′,5′,6′-hexahydro-[3,4′]bipyridinyl-6-ylamino)-pyrimidin-4-yl]-benzonitrile]
< 100	< 100	CC(O)C(=O)N1CCC(Oc2ccc(-c3nc(Nc4ccc(N5CCN(C6COC6)CC5)cc4)ncc3F)cc2C#N)C(F)(F)C1 (stereo not drawn) [Example 299, 2-{[3,3-difluoro-1-(2-hydroxypropanoyl)piperidin-4-yl]oxy}-5-[5-fluoro-2-({4-[4-(oxetan-3-yl)piperazin-1-yl]phenyl}amino)pyrimidin-4-yl]benzonitrile]
< 100	< 100	COc1cc(Nc2nccc(-c3ccc(OC4CCN(C(=O)CO)CC4(F)F)c(C#N)c3)n2)ccn1 (stereo not drawn) [Example 326, 2-[[3,3-difluoro-1-(2-hydroxyacetyl)piperidin-4-yl]oxy]-5-[2-[(2-methoxypyridin-4-yl)amino]pyrimidin-4-yl]benzonitrile]
< 100	< 100	COc1nc(Nc2nccc(-c3ccc(O[C@H]4CCN(C(=O)CO)CC4(F)F)c(C#N)c3)n2)ccc1N1CCN(C)CC1 [Example 100, 2-[[(4S)-3,3-difluoro-1-(2-hydroxyacetyl)piperidin-4-yl]oxy]-5-(2-[[6-methoxy-5-(4-methylpiperazin-1-yl)pyridin-2-yl]amino]pyrimidin-4-yl)benzonitrile]
< 100	< 100	COc1nc(Nc2nccc(-c3ccc(O[C@H]4CCN(C(=O)[C@H](C)O)C[C@@H]4F)c(C#N)c3)n2)ccc1N1CCN(C2COC2)CC1 [Example 196, 2-[(3S,4S)-3-Fluoro-1-((S)-2-hydroxy-propionyl)-piperidin-4-yloxy]-5-{2-[6-methoxy-5-(4-oxetan-3-yl-piperazin-1-yl)-pyridin-2-ylamino]-pyrimidin-4-yl}-benzonitrile]
< 100	< 100	C[C@H](O)C(=O)N1CC[C@H](Oc2ccc(-c3nc(Nc4ccc(N5CCN(C6COC6)CC5)cc4)ncc3F)cc2C#N)[C@H](F)C1 [Example 296, 2-({3-fluoro-1-[(2S)-2-hydroxypropanoyl]piperidin-4-yl}oxy)-5-[5-fluoro-2-({4-[4-(oxetan-3-yl)piperazin-1-yl]phenyl}amino)pyrimidin-4-yl]benzonitrile]
< 100	100 to 1000	COc1cc(C(=O)N(C)C)ncc1Nc1nccc(-c2ccc(OC3CCOCC3)c(C#N)c2)n1 [Example 47, 5-([4-[3-cyano-4-(oxan-4-yloxy)phenyl]pyrimidin-2-yl]amino)-4-methoxy-N,N-dimethylpyridine-2-carboxamide]
< 100	< 100	COc1nc(Nc2nccc(-c3ccc(OC4CCOCC4F)c(C#N)c3)n2)ccc1N1CCN(C2COC2)CC1 (stereo not drawn) [Example 170, 2-(3-Fluoro-tetrahydro-pyran-4-yloxy)-5-{2-[6-methoxy-5-(4-oxetan-3-yl-piperazin-1-yl)-pyridin-2-ylamino]-pyrimidin-4-yl}-benzonitrile]
< 100	< 100	COc1nc(Nc2nccc(-c3ccc(OC4CCNC4)c(C#N)c3)n2)ccc1N1CCN(C2COC2)CC1 (stereo not drawn) [Example 182, 5-[2-([6-methoxy-5-[4-(oxetan-3-yl)piperazin-1-yl]pyridin-2-yl]amino)pyrimidin-4-yl]-2-(pyrrolidin-3-yloxy)benzonitrile]
< 100	< 100	COc1nc(Nc2nccc(-c3ccc(OC4CCN(C(=O)[C@H](C)O)C4)c(C#N)c3)n2)ccc1N1CCN(C2COC2)CC1 (stereo partly drawn) [Example 183, 2-([1-[(2S)-2-hydroxypropanoyl]pyrrolidin-3-yl]oxy)-5-[2-([6-methoxy-5-[4-(oxetan-3-yl)piperazin-1-yl]pyridin-2-yl]amino)pyrimidin-4-yl]benzonitrile]
100 to 1000	100 to 1000	COc1nc(Nc2nccc(-c3ccc(O[C@@H]4CCN(C(=O)[C@@H](C)O)C[C@@H]4F)c(C#N)c3)n2)ccc1C1CCN(C2COC2)CC1 [Example 195, 2-[(3S,4R)-3-Fluoro-1-((R)-2-hydroxy-propionyl)-piperidin-4-yloxy]-5-[2-(2-methoxy-1′-oxetan-3-yl-1′,2′,3′,4′,5′,6′-hexahydro-[3,4′]bipyridinyl-6-ylamino)-pyrimidin-4-yl]-benzonitrile]
< 100	< 100	COc1nc(Nc2nccc(-c3ccc(OC4CCOCC4)c(C#N)c3)n2)ccc1C1CCN(C)CC1 [Example 40, 5-(2-[[6-methoxy-5-(1-methylpiperidin-4-yl)pyridin-2-yl]amino]pyrimidin-4-yl)-2-(oxan-4-yloxy)benzonitrile]
< 100	< 100	COc1nc(Nc2nccc(-c3ccc(NC4CCOCC4)c(C#N)c3)n2)ccc1C(=O)N(C)C [Example 63, 6-[(4-[3-cyano-4-[(oxan-4-yl)amino]phenyl]pyrimidin-2-yl)amino]-2-methoxy-N,N-dimethylpyridine-3-carboxamide]
< 100	< 100	COc1nc(Nc2nccc(-c3ccc(OC4CCOCC4)c(C#N)c3)n2)ccc1C1CCN(C)CC1F (stereo not drawn) [Example 43, 5-(2-[[5-(3-fluoro-1-methylpiperidin-4-yl)-6-methoxypyridin-2-yl]amino]pyrimidin-4-yl)-2-(oxan-4-yloxy)benzonitrile]
< 100	< 100	COc1nc(Nc2nccc(-c3ccc(OC4CCNCC4(F)F)c(C#N)c3)n2)ccc1N1CCN(C2COC2)[C@@H](C)C1 (stereo partly drawn) [Example 123, 2-(3,3-Difluoro-piperidin-4-yloxy)-5-{2-[6-methoxy-5-((S)-3-methyl-4-oxetan-3-yl-piperazin-1-yl)-pyridin-2-ylamino]-pyrimidin-4-yl}-benzonitrile]
< 100	< 100	COc1cc(Nc2nccc(-c3ccc(OC4CCOCC4)c(C#N)c3)n2)cnc1C1CCN(C)CC1 [Example 57, 5-(2-[[5-methoxy-6-(1-methylpiperidin-4-yl)pyridin-3-yl]amino]pyrimidin-4-yl)-2-(oxan-4-yloxy)benzonitrile]
